Results on 35 compounds are retold here after US8106055B2, “Substituted amide compounds” (Gruenenthal GmbH, priority 2007, dated 2012).

T1 sequence (P35372 whole entry): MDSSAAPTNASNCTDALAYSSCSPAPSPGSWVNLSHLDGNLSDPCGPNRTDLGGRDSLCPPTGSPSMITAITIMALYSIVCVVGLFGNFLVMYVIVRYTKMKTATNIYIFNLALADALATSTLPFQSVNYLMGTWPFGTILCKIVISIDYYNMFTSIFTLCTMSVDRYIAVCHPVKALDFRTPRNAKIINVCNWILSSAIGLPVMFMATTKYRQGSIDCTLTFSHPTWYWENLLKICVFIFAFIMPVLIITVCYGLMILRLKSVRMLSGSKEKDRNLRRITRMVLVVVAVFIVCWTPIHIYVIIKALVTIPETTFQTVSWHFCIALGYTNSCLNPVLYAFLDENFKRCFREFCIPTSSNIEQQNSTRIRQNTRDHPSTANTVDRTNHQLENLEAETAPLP

The first assay has as its target T1, human μ opiate receptor (Homo sapiens, UniProt P35372).
T1 construct: purchased PerkinElmer Life Sciences, Zaventem, Belgium RB-HOM; host or cells: CHO-K1 cells (membrane preparation)
The assay can be described thus: Affinity for the human μ opiate receptor ([3H]-naloxone displacement, CHO-K1 receptor membrane preparation, SPA). The assay is classed as binding. Conditions: 1.5 h, Table 2; test concentration 1 μM; read-out: μ receptor. The method, boiled down: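 Test compounds, 1 nmol/l [3H]-naloxone and CHO-K1 membranes bearing the human μ opiate receptor are combined with WGA-SPA beads. After 90 minutes at room temperature, plates are centrifuged and radioactivity counted. Specific-binding inhibition at 1 μmol/l is given in percent.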
Regarding `CN(C)C(c1ccccc1)C1CCC(NC(=O)COCCN(C)S(=O)(=O)c2c(Cl)cc(Cl)cc2Cl)C1` (centres unmarked) [Example 615, N-[3-(dimethylaminophenylmethyl)-cyclopentyl]-2-{2-[(2,4,6-trichlorobenzenesulfonyl)-methylamino]-ethoxy}-acetamide], the inhibition at 1 µM was 89%.

Turning to `CN(C)C(c1ccccc1)C1CCC(NC(=O)COC2CCCN(S(=O)(=O)c3c(Cl)cc(Cl)cc3Cl)C2)CC1` (centres unmarked) [Example 608, N-[4-(dimethylaminophenylmethyl)-cyclohexyl]-2-[1-(2,4,6-trichlorobenzenesulfonyl)-piperidin-3-yloxy]-acetamide], the inhibition at 1 µM came out at 89%.

On to `CN(C)C(c1ccccc1)C1CCC(NC(=O)COC2CCN(S(=O)(=O)c3c(Cl)cc(Cl)cc3Cl)C2)CC1` (centres unmarked) [Example 609, N-[4-(dimethylaminophenylmethyl)-cyclohexyl]-2-[1-(2,4,6-trichlorobenzenesulfonyl)-pyrrolidin-3-yloxy]-acetamide], for which the inhibition at 1 µM worked out at 94%.

For `CN(CCOCC(=O)NC1CCC(C(c2ccccc2)N2CCCC2)CC1)S(=O)(=O)c1c(Cl)cc(Cl)cc1Cl` (centres unmarked) [Example 606, 2-{2-[methyl-(2,4,6-trichlorobenzenesulfonyl)-amino]-ethoxy}-N-[4-(phenylpyrrolidin-1-yl-methyl)-cyclohexyl]-acetamide], the inhibition at 1 µM is 46%.

Staying with this assay, now noted: test concentration of 1 μM.
For `Cc1ccc(S(=O)(=O)N(C)CCOCC(=O)NCC2CCC(C(c3cccc(F)c3)N(C)C)CC2)cc1` (centres unmarked) [Example 227], the “μ (binding on the μ opioid receptor, % inhibition)” value is reported as 77%.

Consider `CN(C)C(c1cccc(F)c1)C1CCC(NC(=O)COC2CCN(S(=O)(=O)c3ccc(Cl)cc3)C2)CC1` (centres unmarked) [Example 204], for which the “μ (binding on the μ opioid receptor, % inhibition)” value is listed as 81%.

In the case of `Cc1cc(C)c(S(=O)(=O)N2CCC(OCC(=O)NCCC3CCC(C(c4cccc(F)c4)N(C)C)CC3)C2)c(C)c1` (centres unmarked) [Example 264], the “μ (binding on the μ opioid receptor, % inhibition)” value came out at 77%.

As for `COc1cc(C)c(S(=O)(=O)N2CCN(CCOCC(=O)NC3CCC(C(c4ccc(F)cc4)N(C)C)CC3)CC2)c(C)c1C` (centres unmarked) [Example 222], the “μ (binding on the μ opioid receptor, % inhibition)” value is listed as 77%.

`CN(C)C(c1ccc(Cl)cc1)C1CCC(CNC(=O)COC2CCCCC2N(C)S(=O)(=O)c2ccc(Cl)c(Cl)c2)CC1` (centres unmarked) [Example 269]: the “μ (binding on the μ opioid receptor, % inhibition)” value is given as 74%.

Take `CN(C)C(c1cccc(F)c1)C1CCC(CCNC(=O)COC2CCN(S(=O)(=O)c3ccc(Cl)cc3)C2)CC1` (centres unmarked) [Example 247]: the “μ (binding on the μ opioid receptor, % inhibition)” value is 75%.

Consider `CN(C)C(c1cccc(F)c1)C1CCC(NC(=O)COC2CCCN(S(=O)(=O)c3ccccc3)C2)CC1` (centres unmarked) [Example 277], for which the “μ (binding on the μ opioid receptor, % inhibition)” value is given as 68%.

For `CN(C)C(c1cccc(F)c1)C1CCC(CNC(=O)COCC2CCCN(S(=O)(=O)c3ccccc3)C2)CC1` (centres unmarked) [Example 220], the “μ (binding on the μ opioid receptor, % inhibition)” value is given as 73%.

For the compound `CN(C)C(c1cccc(F)c1)C1CCC(CNC(=O)COC2CCN(S(=O)(=O)c3ccc(F)cc3)C2)CC1` (centres unmarked) [Example 275], the “μ (binding on the μ opioid receptor, % inhibition)” value was determined as 71%.

For the compound `COc1cc(C)c(S(=O)(=O)N(CCOCC(=O)NCC2CCC(C(c3ccccc3)N(C)C)CC2)Cc2ccccc2)c(C)c1C` (centres unmarked) [Example 201], the “μ (binding on the μ opioid receptor, % inhibition)” value is 88%.

For the compound `COc1cc(C)c(S(=O)(=O)N(C)CCOCC(=O)NCC2CCC(C(c3cccc(F)c3)N(C)C)CC2)c(C)c1` (centres unmarked) [Example 248], the “μ (binding on the μ opioid receptor, % inhibition)” value stood at 81%.

On to `COc1ccc(S(=O)(=O)N2CCCCC2COCC(=O)NC2CCC(C(c3cccs3)N(C)C)CC2)cc1OC` (centres unmarked) [Example 261], for which the “μ (binding on the μ opioid receptor, % inhibition)” value amounted to 72%.

With `CN(C)C(c1ccccc1)C1CCC(CNC(=O)COC2CCN(S(=O)(=O)c3ccc(F)cc3)C2)CC1` (centres unmarked) [Example 219], the “μ (binding on the μ opioid receptor, % inhibition)” value is recorded as 82%.

With `COc1cc(C)c(S(=O)(=O)N2CCC(OCC(=O)NC3CCC(C(c4cccc(F)c4)N(C)C)CC3)C2)c(C)c1` (centres unmarked) [Example 251], the “μ (binding on the μ opioid receptor, % inhibition)” value was 77%.

For the compound `COc1cc(C)c(S(=O)(=O)N2CCC(OCC(=O)NCC3CCC(C(c4cccc(F)c4)N(C)C)CC3)C2)c(C)c1C` (centres unmarked) [Example 252], the “μ (binding on the μ opioid receptor, % inhibition)” value is listed as 82%.

On to `CN(C)C(c1cccc(F)c1)C1CCC(CCNC(=O)COCC2CCCN2S(=O)(=O)c2ccc(Cl)c(Cl)c2)CC1` (centres unmarked) [Example 202], for which the “μ (binding on the μ opioid receptor, % inhibition)” value is 85%.

Regarding `CN(C)C(c1ccc(F)cc1)C1CCC(CNC(=O)COCC2CCCN2S(=O)(=O)c2ccc(Cl)c(Cl)c2)CC1` (centres unmarked) [Example 267], the “μ (binding on the μ opioid receptor, % inhibition)” value is given as 73%.

As to `Cc1ccc(S(=O)(=O)N(C)CCOCC(=O)NCCC2CCC(C(c3cccc(F)c3)N(C)C)CC2)cc1` (centres unmarked) [Example 240], the “μ (binding on the μ opioid receptor, % inhibition)” value came out at 74%.

With `COc1ccc(S(=O)(=O)N2CCCCC2CCOCC(=O)NCCC2CCC(C(c3cccc(F)c3)N(C)C)CC2)cc1` (centres unmarked) [Example 213], the “μ (binding on the μ opioid receptor, % inhibition)” value is 87%.

Regarding `COc1cc(C)c(S(=O)(=O)N(C)CCOCC(=O)NC2CCC(C(c3cccc(F)c3)N(C)C)CC2)c(C)c1` (centres unmarked) [Example 228], the “μ (binding on the μ opioid receptor, % inhibition)” value is 76%.

As to `COc1ccc(S(=O)(=O)N2CCCCC2CCOCC(=O)NC2CCC(C(c3ccc(F)cc3)N(C)C)CC2)cc1` (centres unmarked) [Example 212], the “μ (binding on the μ opioid receptor, % inhibition)” value is listed as 80%.

For the compound `CCN(CCOCC(=O)NCC1CCC(C(c2ccccc2)N(C)C)CC1)S(=O)(=O)c1c(C)cc(OC)c(C)c1C` (centres unmarked) [Example 231], the “μ (binding on the μ opioid receptor, % inhibition)” value worked out at 82%.

Take `COc1cc(C)c(S(=O)(=O)N2CCN(CCOCC(=O)NCC3CCC(C(c4cccc(F)c4)N(C)C)CC3)CC2)c(C)c1C` (centres unmarked) [Example 223]: the “μ (binding on the μ opioid receptor, % inhibition)” value was determined as 77%.

As for `CN(C)C(c1cccs1)C1CCC(CCNC(=O)COC2CCN(S(=O)(=O)c3ccccc3)CC2)CC1` (centres unmarked) [Example 230], the “μ (binding on the μ opioid receptor, % inhibition)” value is recorded as 82%.

For the compound `Cc1cc(C)c(S(=O)(=O)N(C)CCOCC(=O)NC2CCC(C(c3cccs3)N(C)C)CC2)c(C)c1` (centres unmarked) [Example 235], the “μ (binding on the μ opioid receptor, % inhibition)” value worked out at 76%.

`COc1ccc(S(=O)(=O)N2CCCC2COCC(=O)NC2CCC(C(c3cccc(F)c3)N(C)C)CC2)cc1` (centres unmarked) [Example 268]: the “μ (binding on the μ opioid receptor, % inhibition)” value stood at 70%.

Consider `CN(C)C(c1cccc(F)c1)C1CCC(NC(=O)COCCN(C)S(=O)(=O)c2c(Cl)cc(Cl)cc2Cl)CC1` (centres unmarked) [Example 208], for which the “μ (binding on the μ opioid receptor, % inhibition)” value is 79%.

`COc1ccc(S(=O)(=O)N2CCCCC2COCC(=O)NC2CCC(C(c3cccs3)N(C)C)CC2)cc1` (centres unmarked) [Example 243]: the “μ (binding on the μ opioid receptor, % inhibition)” value is on record as 79%.

In the case of `Cc1ccc(S(=O)(=O)N(C)CCOCC(=O)NCC2CCC(C(c3ccc(Cl)cc3)N(C)C)CC2)cc1` (centres unmarked) [Example 273], the “μ (binding on the μ opioid receptor, % inhibition)” value came to 68%.

Consider `COc1ccc(S(=O)(=O)N2CCC(OCC(=O)NCCC3CCC(C(c4cccc(F)c4)N(C)C)CC3)C2)cc1OC` (centres unmarked) [Example 262], for which the “μ (binding on the μ opioid receptor, % inhibition)” value turned out to be 82%.

Turning to `CN(C)C(c1ccccc1)C1CCC(CNC(=O)COCC2CCCN(S(=O)(=O)c3ccccc3)C2)CC1` (centres unmarked) [Example 129, N((4((dimethylamino)(phenyl)methyl)cyclohexyl)methyl)-2-((1-(phenylsulfonyl)piperidin-3-yl)methoxy)acetamide], the “μ (binding on the μ opioid receptor, % inhibition)” value is 89%.
